Data: patent US20210308173A1, “PHARMACEUTICAL COMPOSITION COMPRISING CYCLODEXTRIN COMPLEXES OF ANETHOLE TRITHIONE OR DERIVATIVES THEREOF” (priority 2018, published 2021)

Assay: Incompatibility of AOL with lipid carriers (visual examination)
Format: physicochemical
Experimental: 100 mg of AOL were successfully dissolved in 20 mL of polyglyceryl-3 dioleate (Plurol® Oleique). A homogenous vividly orange colored solution was obtained with less than 5 minutes of magnetic stirring.
The obtained solution turned greed with obvious aspect and odor having turned rancid.
100 mg of AOL were successfully dissolved in 20 mL of 2-[2,3-bis(2-hydroxyethoxy)propoxy]ethanol; hexadecanoic acid; octadecanoic acid (Labrafil® M1944). A homogenous orange colored solution was obtained with less than 5 minutes of magnetic stirring.
The obtained solution turned dark green.
A new solution of 5 mg/mL AOL in Labrafil® M1944 and stocked in a hermetically closed recipient.

COc1ccc(-c2cc(=S)ss2)cc1 [AOL, 5-(4-methoxyphenyl)-3H-1,2-dithiole-3-thione]
visual examination of the solution (5 mg/mL in Labrafil M1944, hermetically closed recipient, 24 hours at room temperature): same stability problem | magnetic stirring time to homogenous solution (100 mg in 20 mL Labrafil M1944): less than 5 minutes | magnetic stirring time to homogenous solution (100 mg in 20 mL polyglyceryl-3 dioleate (Plurol Oleique)): less than 5 minutes | visual examination of the solution (Labrafil M1944, after 24 hours at room temperature): intense color change | visual examination of the solution (Plurol Oleique, after 24 hours at room temperature): intense color change | stability within lipid carriers (period of 24 hours, visual observation): unstable
